“Also recorded” adds a separate entry of the source. Like-named read-outs stand apart in the source and are kept apart here.
Columns and labels:
[1] = cited from earlier work
[2] = test system: pregnant uterine arteries; test: PGI2 release/response in pregnant uterine arteries; assay type: cell-based
Description: FIG. 1A is a graph of laboratory data indicating PGI2 response in pregnant uterine arteries at various levels of Ouabain, wherein GABA is provided and Taurine is not—both without and with the provision of AII.
FIG. 1B is a graph of laboratory data indicating PGI2 response in pregnant uterine arteries at various levels of Ouabain, wherein both GABA and Taurine are provided—without and with the provision of AII.
FIG. 3A is a graph of laboratory data indicating PGI2 response in pregnant uterine arteries at various levels of GABA, wherein neither Taurine nor Ouabain is provided—without and with the provision of AII.
FIGS. 4A and 4B are graphs of laboratory data illustrating PGI2 response to taurine levels, GABA levels, and the provision of AII in pregnant uterine vessels with lower and higher Ouabain conditions, respectively.
FIGS. 5B is a graph of laboratory data illustrating PGI2 response in pregnant uterine arteries to the provision of various combinations of GABA, AII, and bicuculine.
(§1) FIG. 6 is a graph illustrating changes in PGI2 response versus basal levels, in both pregnant uterine vessels and pregnant systemic vessels, when the endothelium is removed.

[3] = test system: intact nonpregnant systemic vessels; test: PGI2 response in intact nonpregnant systemic vessels (GABA dose response curves); assay type: cell-based, sheep; details: for PGI2 levels on addition of Nanomolar Ouabain: most concentrations of GABA
Description: FIG. 2A is a graph of laboratory data indicating PGI2 response in intact nonpregnant systemic vessels at various levels of GABA, wherein neither Taurine nor Ouabain is provided without and with the provision of AII.
FIG. 2B is a graph of laboratory data indicating PGI2 response in intact nonpregnant systemic vessels at various levels of GABA, wherein neither Taurine nor AII is provided—without and with the provision of Ouabain.
FIG. 2C is a graph of laboratory data indicating PGI2 response in intact nonpregnant systemic vessels at various levels of GABA, wherein AII is provided and Taurine is not—without and with the provision of Ouabain.
In FIGS. 2A-2C, GABA dose response curves of systemic vessels in 18 day postpartum sheep are provided. These vessels are believed to be representative of non-pregnant normotensive systemic vessels. […] Accordingly, it appears that at least one of Taurine or EO (or the like) may be needed to up-regulate the GABA-a receptor to augment PGI2 levels in the presence of nanomolar ouabain, or may at least be substantially helpful to increase PGI2 levels.

[4] = test system: pregnant systemic arteries; test: PGI2 release/response in pregnant systemic arteries; assay type: cell-based
Description: FIG. 3B is a graph of laboratory data indicating PGI2 response in pregnant systemic arteries at various levels of GABA, wherein neither Taurine nor Ouabain is provided—without and with the provision of AII.
FIGS. 5A is a graph of laboratory data illustrating PGI2 response in pregnant systemic arteries to the provision of various combinations of GABA, AII, and bicuculine.
as §1

[5] = test system: Cyclooxygenase (COX); details: pharmacological blockade of COX; cited from earlier work

For `NCCCC(=O)O` [GABA], the blood pressure ([1]; eHTN humans) is listed as “lower blood pressure”, the blood pressure ([1]; normotensive patients) is listed as “no effect to reduce blood pressure” and the “PGI2 release with GABA and AII” value ([2]; FIG. 4A, low levels of taurine and low Ouabain) is listed as “PGI2 release increased”. For the same compound, the “PGI2 release on addition of GABA” value ([2]; FIG. 5B col. 2, GABA alone, no AII) was “insignificant effect on PGI2 release”, the “PGI2 release on addition of GABA” value ([2]; together with AII) was “increase PGI2; also recorded: increased PGI2 release” and the “PGI2 response to GABA” value ([3]; FIG. 2A/2B, 18 day postpartum sheep, no Ouabain, no Taurine) was “no PGI2 response; also recorded: did not release significant PGI2”. For the same compound, the “PGI2 release on exposure to GABA” value ([4]; absence of AII) was “increased PGI2 release; also recorded: responded to make PGI2”.
In the case of `C[C@@H]1O[C@@H](O[C@H]2C[C@@H](O)[C@]3(CO)[C@H]4[C@H](O)C[C@]5(C)[C@@H](C6=CC(=O)OC6)CC[C@]5(O)[C@@H]4CC[C@]3(O)C2)[C@H](O)[C@H](O)[C@H]1O` [Ouabain], the “PGI2 release with increase in Ouabain” value ([2]; FIGS. 4A/4B, Ouabain from −10M to −9M, low taurine, GABA approx. −7M) is reported as “higher PGI2 release”, the “PGI2 levels on addition of Nanomolar Ouabain” value ([3]; FIG. 2B, without AII, no Taurine) is reported as “significant increase in PGI2 levels” and the “PGI2 levels on addition of Nanomolar Ouabain” value ([3]; FIG. 2C, with AII, no Taurine) is reported as “significant increase in PGI2 levels”.
In the case of `NCCS(=O)(=O)O` [Taurine, 2-amino-ethane sulfonic acid], the “overall PGI2 release with vs without Taurine” value ([2]; FIG. 1A vs 1B, regardless of AII presence) is reported as “overall PGI2 release appears higher without Taurine”.
For `CC(=O)Oc1ccccc1C(=O)O` [aspirin], the resting blood pressure [5] is listed as “does not substantially affect resting blood pressure”.
With `CN1CCc2cc3c(cc2[C@H]1[C@@H]1OC(=O)c2c1ccc1c2OCO1)OCO3` [bicuculine] the “PGI2 release on blocking GABA-a receptors” value ([2]; FIG. 5B, also when additional GABA was added (col. 5)) was “substantially reduced PGI2 release” and the “PGI2 release on blocking GABA-a receptors” value ([4]; FIG. 5A) was “reduced PGI2 release”.
In the case of `COc1ccc2c(c1)c(CC(=O)O)c(C)n2C(=O)c1ccc(Cl)cc1` [indomethacin], the resting blood pressure [5] is listed as “does not substantially affect resting blood pressure”.
In the case of `NCC(CP(=O)(O)O)c1ccc(Cl)cc1` (stereo not shown) [phaclofen], the “PGI2 release on GABA-b receptor blockade” value ([2]; experiments similar to FIGS. 5A/5B in pregnant vessels, data not shown) is reported as “did not affect PGI2 release”.
In the case of Angiotensin II [AII], the “effect of presence or absence of AII on PGI2 release” value ([2]; FIG. 1A, GABA provided, without taurine, various levels of Ouabain) is reported as “negligible effect on PGI2 release”, the “PGI2 release difference responsive to presence or absence of AII” value ([2]; FIG. 3A, GABA concentrations of −7M, −6M, −5M) is reported as “no significant PGI2 release difference” and the “PGI2 release with AII vs without AII” value ([2]; FIG. 3A, most levels of GABA, no Taurine, no Ouabain) is reported as “more PGI2 is released”. For the same compound, the “PGI2 release on further addition of AII” value ([2]; FIG. 5B col. 4, bicuculine and GABA present) was “even further decreased PGI2”, the “PGI2 release in the presence of AII” value ([2]; FIG. 6, endothelium removed) was “reduced” and the “PGI2 formation by presence or absence of Angiotensin II” value ([3]; FIG. 2A, exposed to GABA, without Taurine or EO) was “no significant PGI2 formation”. The “PGI2 release on addition of AII” value ([3]; FIG. 2B vs 2C, in the presence of Ouabain, especially at higher GABA) was “substantially more PGI2 release”, the “relationship between PGI2 release and AII presence” value ([4]; FIG. 3B, various GABA levels, no Taurine, no Ouabain, compared with uterine circuit) was “substantially inverted” and the “PGI2 release in the presence of AII” value ([4]; FIG. 6, endothelium removed) was “increased”.

— patent US20210346461A1, “UTILIZATION OF ENDOGENOUS OUBAIN-REGULATING COMPOUNDS AND COMPOSITIONS THEREOF IN TREATMENT OF VASCULAR DISEASE” (priority 2020, published 2021)
